Results on four molecules are retold here after the NIST ThermoML archive (doi:10.1021/acs.jced.5b00893).

Molecules are shown by their SMILES. Numbers after ± are expanded uncertainties.

As a reminder, the mass density is mass per unit of volume.

The conditions of this series: 293.15 K; 101.33 kPa; Liquid; Vibrating tube method.
Take `CN1CCN(C)C1=O` [1,3-dimethyl-2-imidazolidinone]: the mass density is 1058 ± 2 kg/m3.
The result for `CN1CCCN(C)C1=O` [1,3-dimethyl-3,4,5,6-tetrahydro-2(1H)-pyrimidinone] reads 1065 ± 2 kg/m3; that for `CCCCOC(=O)C(C)O` (centres undefined) [butyl 2-hydroxypropanoate], 982 ± 2 kg/m3.
Regarding `O=C1CCCO1` [γ-butyrolactone], the mass density worked out at 1129 ± 2 kg/m3.
